Assay results from patent US8466151B2, “Compounds and method for treatment of cancer” (Critical Outcome Technologies, Inc., priority 2007, dated 2013).
Like-named read-outs stand apart in the source and are kept apart here.

What was measured:
[1] = system: human SHP-77 SCLC cells as xenograft; assay: Inhibition of tumor growth, SHP-77 xenograft in NCr-nu mice; format: in vivo; settings: for maximum number of tumours versus control, saline-treated mice / mean tumour size versus saline-treated mice: SHP-77 xenografts; for maximum number of tumours versus control, saline-treated mice: FIG. 6, not subject to analysis of significance; for mean tumour size versus saline-treated mice: i.p. treatment up to 38 days, p<0.05; for mean tumor volume: SHP-77 small cell lung cancer xenografts, saline control 260±33 mm^3
Protocol: SHP-77 SCLC cells were grown in culture and injected into each flank of NCr-nu mice (T cell-deficient immunocompromised mice, suitable for growth of this cell line) (2×10^6 cells per injection, in Matrigel™). One day after injection of tumour cells, groups of 5 mice each were injected with 3 mg/kg of COTI-2MO5 or COTI-4MO5 (i.p.), once every 2 days, up to 38 days. Tumour size was estimated at 5, 10, 17, 24, and 38 days, by external caliper measurement. Animals were humanely euthanized after the 38 day tumour measurement.
For comparison, mice (5 mice per group, injected as described above with SHP-77 human tumor cells as described above) and harbouring SHP-77 xenografts were treated with Taxol® (12.5 mg/kg, i.p. in 0.5 ml isotonic saline) every 2 days (according to the report of J. Riondel et al., Anticancer Res. 8:387-90, 1988) or with cisplatin (3.0 mg/kg of DDP i.p., once per week for four weeks, in isotonic saline, according to the report of P. A. Andrews et al., Cancer Commun. 2:93-100, 1990). Tumour size was estimated at 5, 10, 17, 24, and 38 days, by external caliper measurement. Animals were humanely euthanized after the 38 day tumour measurement.

[2] = system: DMS-114 human SCLC cell line; assay: In vitro tumor cell growth inhibition, cell count after 3 days; format: cell-based
Protocol: (§1) Cells were counted after 3 days in culture and at a cell density of no more than 80%.
(§2) In vitro inhibition of small cell lung cancer (SCLC) cell lines by the compound of formula 1A was done with standard human tumor cells (established cell lines available from the American Type Tissue culture collection). […] Cells were counted after 3 days in culture and at a cell density of no more than 80%.
(§3) Briefly, cells were plated in plastic tissue culture plates and grown under standard conditions for each cell line, in carbon dioxide/oxygen atmosphere in plastic tissue culture plates, in the presence of COTI-4 or COTI-4A compounds at 35° C. for 3 days. Control cultures were treated with vehicle minus compound. Cells were counted after 3 days in culture and at a cell density of no more than 80%. The following cell lines, obtained from the National Cancer Institute, were tested: human SCLC cell lines DMS 153, DMS114, SHP77; human NSCLC cell lines H226, A460, A549; human breast cancer cell lines T47D, MCF7; human colon cancer cell line HT29; and, human Leukemia cell lines K562, HL60.

[3] = system: DMS-153 human SCLC cell line; assay: as above; format: cell-based; settings: for IC50: DMS-153 SCLC cells, 3 days, 35° C.
Protocol: as §1, §2, §3

[4] = system: SHP-77 human SCLC cell line; assay: as above; format: cell-based; settings: for IC50: Homo sapiens
Protocol: as §1, §2, §3

[5] = system: A460 large cell carcinoma-derived cells (NSCLC; also printed H460); assay: as above; format: cell-based; settings: Homo sapiens
Protocol: (§4) In vitro inhibition of non-small cell lung cancer (NSCLC) cell lines by the compound of Formula 1B (COTI-4) was evaluated. […] Cells were counted after 3 days in culture and at a cell density of no more than 80%.
(§5) In vitro inhibition of non-small cell lung cancer (NSCLC) cell lines by the compound of Formula 1A is evaluated. […] Cells are counted after 3 days in culture and at a cell density of no more than 80%.
as §3

[6] = system: A549 adenocarcinoma-derived cells (NSCLC); assay: as above; format: cell-based; settings: Homo sapiens
Protocol: as §4, §5, §3

[7] = system: H226 squamous cell carcinoma-derived cells (NSCLC); assay: as above; format: cell-based; settings: Homo sapiens
Protocol: as §4, §5, §3

[8] = system: human small cell lung cancer cell lines (DMS-114, DMS-153, SHP-77); assay: In vitro inhibition of SCLC cell lines, summary statements; format: cell-based
Description: as §1, §2

[9] = system: human non-small cell lung cancer cell lines (A549, H226, A460); assay: In vitro inhibition of NSCLC cell lines, summary statements; format: cell-based; settings: across NSCLC cell lines, read-out: IC50 values, inhibits growth and/or kills NSCLC cells
Protocol: (§6) In vitro inhibition of non-small cell lung cancer (NSCLC) cell lines by the compound of Formula 1B (COTI-4) was evaluated. Standard numbers of human tumor cells (established cell lines available from the American Type Tissue culture collection) were plated in plastic tissue culture plates and grown under standard conditions for each cell line, in carbon dioxide/oxygen atmosphere in plastic tissue culture plates, in the presence of COTI-4 (0-1 mM) or Gleevec® ([…]) at 35° C. for 3 days. Control cultures were treated with vehicle minus compound or Gleevec®. Cells were counted after 3 days in culture and at a cell density of no more than 80%.
as §6, with “Formula 1A is” for “Formula 1B (COTI-4) was”, “of compounds of formula 1A” for “of COTI-4”, “cultures are” for “cultures were”, “Cells are” for “Cells were”

[10] = system: HL60 human Leukemia cell line; assay: In vitro IC50 against cancer cell lines; format: cell-based; settings: HL-60, 72 h, HL60 leukemia cells, 3 days, 35° C.
Protocol: (§7) Briefly, cells were plated in plastic tissue culture plates and grown under standard conditions for each cell line, in carbon dioxide/oxygen atmosphere in plastic tissue culture plates, in the presence of COTI-4 or COTI-4A compounds at 35° C. for 3 days. Control cultures were treated with vehicle minus compound. Cells were counted after 3 days in culture and at a cell density of no more than 80%.

[11] = system: HT29 human colon cancer cell line; assay: In vitro IC50 against cancer cell lines; format: cell-based; settings: HT-29, 72 h, HT29 colorectal cancer cells, 3 days, 35° C.
Protocol: as §7

[12] = system: K562 human Leukemia cell line; assay: In vitro IC50 against cancer cell lines; format: cell-based; settings: 72 h, K562 leukemia cells, 3 days, 35° C.
Protocol: as §7

[13] = system: MCF7 human breast cancer cell line; assay: In vitro IC50 against cancer cell lines; format: cell-based; settings: 72 h, MCF7 breast cancer cells, 3 days, 35° C.
Protocol: as §7

[14] = system: T47D human breast cancer cell line; assay: In vitro IC50 against cancer cell lines; format: cell-based; settings: 72 h, T47D breast cancer cells, 3 days, 35° C.
Protocol: as §7

[15] = Escalating dose acute toxicity study in mice; format: in vivo; settings: mice, 4, 8, 16 mg/kg, alternate day IP injections for 28 days
Protocol: An escalating dose acute toxicity study was conducted with COTI-2, COTI-4 (Formula 1B) and COTI-219. Standard lab mice were divided into four treatment groups (control, 4, 8, 16 mg/kg) with four animals per group. It should be noted that the highest dose was approximately 10 times the estimated effective dose. Mice were given alternate day IP injections for 28 days.

[16] = Homo sapiens, DMS-114, actual in-vitro data, logarithm of IC50, negative, read-out: DMS114 (Log IC50) (converted)
[17] = SHP77, 72 h, SHP-77 SCLC cells, 3 days, 35° C., read-out: IC50
[18] = SHP77, actual in-vitro data, logarithm of IC50, negative, read-out: SHP-77 (Log IC50) (converted)
[19] = NCI-H460, 72 h, A460 NSCLC cells, 3 days, 35° C., read-out: IC50
[20] = NCI-H460, actual in-vitro data, logarithm of IC50, negative, read-out: H460 (Log IC50) (converted)
[21] = 72 h, A549 NSCLC cells, 3 days, 35° C., read-out: IC50
[22] = A549, actual in-vitro data, logarithm of IC50, negative, read-out: A549 (Log IC50) (converted)
[23] = NCI-H226, 72 h, H226 NSCLC cells, 3 days, 35° C., read-out: IC50
[24] = NCI-H226, actual in-vitro data, logarithm of IC50, negative, read-out: H226 (Log IC50) (converted)

Compound	maximum number of tumours versus control, saline-treated mice [1]	mean tumour size versus saline-treated mice [1]	IC50 [2, 16] [nM]	IC50 [4, 17] [nM]	IC50 [4, 18] [nM]	IC50 [5, 19] [nM]	IC50 [5, 20] [nM]	IC50 [6, 21] [nM]	IC50 [6, 22] [nM]	IC50 [7, 23] [nM]	IC50 [7, 24] [nM]	IC50 [9] [nM]	mean tumor volume [1] [mm^3]	further results
S=C(N/N=C1/CCCc2cccnc21)N1CCN(c2ccccn2)CC1 [COTI-2]	lower than that in control	significantly lower	–	–	–	–	–	–	–	–	–	–	–	–
CN1CCN(C(=S)NN=C2c3ncccc3-c3cccnc32)CC1 [COTI-219]	lower than that in control	–	–	–	–	–	–	–	–	–	–	–	–	–
CN1CCN(C(=S)NN=C(c2ccccc2)c2ccnnc2)CC1 [Formula 1A, 4-methyl-N′-[phenyl(pyridazin-4-yl)methylidene]piperazine-1-carbothiohydrazide]	–	–	650	10000	10700	100000	72400	1500	1570	90000	63500	≥ 1500	–	times more effective in vitro than Gleevec® ([2]; DMS-114): about 100; IC50 ([2]; DMS-114 SCLC cells, 3 days, 35° C., listed as COTI-4A, read-out: IC50): 650 nM; IC50 ([2]; Homo sapiens, DMS-114, 72 h, DMS-114 SCLC cells, 3 days, 35° C., read-out: IC50): < 1000 nM; times more effective in vitro than Gleevec® ([3]; DMS-153): about 100; effectiveness relative to Gleevec® ([4]; SHP-77): about twice as effective; IC50 ([8]; Homo sapiens, across SCLC cell lines, depending on cell line tested, read-out: IC50 values, inhibits growth and/or kills SCLC cells): ≥ 650 nM; melting point: 141 to 143 °C
CN1CCN(C(=S)NN=C(c2ccccn2)c2ccccn2)CC1 [Formula 1B, N′-(dipyridin-2-ylmethylidene)-4-methylpiperazine-1-carbothiohydrazide]	lower than that in control	significantly lower	30	173	173	5100	5110	6800	6810	2500	2500	≥ 2500	6.2	IC50 ([2]; DMS-114 SCLC cells, 3 days, 35° C., listed as COTI-4 (1B), read-out: IC50): 30 nM; IC50 ([2]; DMS-114 SCLC cells, 3 days, 35° C., listed as COTI-4M05, read-out: IC50): 30 nM; IC50 ([3]; listed as COTI-4 (1B)): 130 nM; IC50 ([3]; listed as COTI-4M05): 130 nM; IC50 [10]: 318 nM; IC50 [11]: 83 nM; IC50 [12]: 95 nM; IC50 [13]: 291 nM; IC50 [14]: 224 nM; times more effective than Gleevec® against these cell lines in vitro ([8]; 3 human small cell lung cancer cell lines): over 100; acute toxicity / adverse events [15]: safe and non-toxic at all dosage levels
CC(=O)O[C@H]1C(=O)[C@@]2(C)[C@H]([C@H](OC(=O)c3ccccc3)[C@]3(O)C[C@H](OC(=O)[C@H](O)[C@@H](NC(=O)c4ccccc4)c4ccccc4)C(C)=C1C3(C)C)[C@]1(OC(C)=O)CO[C@@H]1C[C@@H]2O [Taxol®, paclitaxel]	lower than that in control	significantly lower	–	–	–	–	–	–	–	–	–	–	183	–
N.N.[Cl][Pt][Cl] [cisplatin]	lower than that in control	significantly lower	–	–	–	–	–	–	–	–	–	–	132±26	–
